Results: paper PMC5824344 (ACS Chemical Biology, 2017)

Key:
[1] = Pharmacokinetics and biodistribution study in mice (IV and PO); type: in vivo, BALB/c mice
Description: Supplemental Figure 4: Mouse biodistribution of orally-administered 4. Mice were treated with a single dose of 4 by oral gavage (PO, 10 mg/kg). The mice were sacriﬁced at 30 min, 4 h, and 24 h after 4 administration, and the indicated tissues homogenized and analyzed for 4 by HPLC. While serum levels are much lower than […]
and kidney at 0.5 hours. At 4 and 24 h, as in the IV cohort, 4 remains at a higher concentration in the liver than in other tissues. Each data point represents the mean of 3 animals with error bars representing standard deviation (GraphPad Prism).
(also on this page, place not known: Serum Brain Liver Kidney Heart Spleen Lung 0 500 1000 1500 2000 Tissue h h (ng per g tissue) h 0.5 24 4)
(1 picture or pasted object on this page, not shown here)
The adherent monolayers were washed once with Hank’s buﬀered salt solution (Gibco), then inoculated with 100 µL of analyte and 100 µL of the supplemented MEM used to prepare the dilutions. The plates were rocked at 20 ◦C for 90 min, after which the inoculum was removed and nutrient-supplemented primary overlay (1 mL) was added to each well. The overlay was allowed to solidify at 20 ◦C, before returning the cells to the incubator. After 5 d, nutrient-supplemented, neutral red-containing secondary overlay (1 mL) was added to each well and allowed to solidify at 20 ◦C, then the cells were returned to the incubator.
After 1 d, plaques were observed and counted from the underside of the plate by eye.
5.10 Pharmacokinetics and Biodistribution Study
The study was carried out by Sai Life Science, Ltd. All procedures were in accordance with the guidelines provided by the Committee for the Purpose of Control and Supervisions of Experiments on Animals as published in The Gazette of India, December 15, 1998. Prior approval of the Institutional Animal Ethics Committee was obtained before initiation of the […]
18 healthy male BALB/c mice (8 – 12 weeks old) weighing between 20 and 35 g were procured from ACTREC, Mumbai, India. Illumination was controlled to give a cycle of 12 h light and 12 h dark. Temperature and humidity were recorded by an auto-controlled data logging system and maintained at 22± 3◦C and 55± 15% humidity, respectively. Animals were provided laboratory rodent diet (Vetcare India Pvt. Ltd.) and fresh reverse-osmosis, UV-treated water ad libitum. The mice were randomly divided into two groups. One group was treated with 4 intravenously (IV) at a dose of 2 mg/kg, while the other group was treated with an oral (per os, PO) dose of 10 mg/kg. The dosing volume was 5 mL/kg for IV treatment and 10 mL/kg for PO treatment. Blood samples were collected from three mice from each group under light isoﬂurane anaesthesia before dosing and at 0.25, 0.5, 1, 2, 4, 8 and 24 h after dosing. An additional blood sample was taken for the IV group at 0.08 h after dosing. After collection, potassium tetraethylenediamine was added to the sample as an anticoagulant. Plasma was immediately harvested by centrifugation and then stored at –70 ◦C until analysis. At 0.5, 4, and 24 h after dosing, 3 mice from each group

[2] = test system: GluI and GluII in Jurkat (T lymphocyte) cells; assay: Free oligosaccharide (FOS) assay in Jurkat cells; type: cell-based, human; conditions: 48 h, 50 µm
Description: 5 Cell and Virus Culture and Assays
5.1 Culture of Cell Lines
The human hepatoma cell line Huh7.5 (Apath, LLC) was cultured in Dulbecco’s modiﬁed Eagle medium (DMEM) with Glutamax (Gibco) supplemented with 100 µg mL−1 strepto-mycin (Sigma), 100 U mL−1 penicillin (Sigma), 100 µm MEM non-essential amino acids (Gibco) and 10% (volume/volume, v/v) heat-inactivated (56 ◦C, 30 min) fetal calf serum (FCS, Seralab). The human monocytic cell line HL60 (ATCC), human T lymphocyte cell line Jurkat (ATCC), and human B lymphocyte cell line Raji (ATCC) were each maintained in RPMI 1640 media with Glutamax (Gibco) supplemented with 100 µg mL−1 streptomycin, 100 U mL−1 penicillin and 10% (v/v) FCS. […]
Cell viability was measured using the CellTiter 96 R© AQueous One Solution Cell Prolifera-tion MTA (3-(4,5-dimethylthiazol-2-yl)-5-(3-carboxymethoxyphenyl)-2-(4-sulfophenyl)-2H - […]
After a further one to two hour incubation, the absorbance at 490 nm was measured on a Molecular Devices SpectraMax M5 microplate reader. […]
Absorbances were averaged across replicates, and corrected for background by subtracting the value for media-only wells. Each drug treatment was then evaluated as a percentage of untreated cells. […]
FOS analysis was carried out as described previously. […] Before purifying the FOS, each sample was analyzed for protein content using the modiﬁed Bradford assay. […]

[3] = BALB/c mice, oral (PO, 10 mg/kg)
[4] = mice, single dose by oral gavage (PO, 10 mg/kg)

Cc1c(C)c2c(c(C)c1OCCCCCN1CC(O)C(O)C(O)C1CO)CCC(C)(CCCC(C)CCCC(C)CCCC(C)C)O2 (stereo not shown) [Compound 4, 5′-tocopheroxypentyl-DNJ]
change of amount present in the liver between the 4 and 24 h time points ([1]; BALB/c mice): did not decrease | oral bioavailability ([1]; BALB/c mice): poor oral bioavailability | maximum blood plasma concentration [1, 3]: 46 nM | time of maximum blood plasma concentration [1, 3]: 8 h | tissue in which compound was detected in the highest amounts ([1]; BALB/c mice, oral and intravenous administration): highest amounts in the liver | half-life ([1]; male, mouse, plasma, BALB/c mice (Figure 3B), read-out: plasma terminal half-life (converted)): 527 min | concentration in the liver relative to other tissues at 4 and 24 h [1, 4]: higher | tissue levels at 0.5 hours [1, 4]: high levels are achieved in the liver | glucosylated free oligosaccharides (FOS) observed after treatment [2]: not in Jurkat | glucosylated free oligosaccharides (FOS) observed after treatment ([2]; listed as ToP-DNJ 4): no glucosylated FOS were detected
